In article PMC5474940 (Biochemistry, 2017):

System: AcOSα-PaFSα
Type: biochemical, Aspergillus clavatus
Conditions: read-out: AcOSα-PaFSα; labelled compound; 25 mM HEPES pH 8.0, 200 mM NaCl, 5 mM MgCl2, 30 °C; cyclase domain

For CC(C)=CCC/C(C)=C/CC/C(C)=C/CC/C(C)=C/COP(=O)(O)OP(=O)(O)O [GGPP], the Km was 0.038 ± 0.01 µM.
